Results on eleven compounds are retold here after ChEMBL document CHEMBL3751826, “Sulfamide derivatives with selective carbonic anhydrase VII inhibitory action” (Bioorg Med Chem, 2016).

Targets include Carbonic anhydrase 14 (Homo sapiens, UniProt Q9ULX7); Carbonic anhydrase 2 (Homo sapiens, UniProt P00918); Carbonic anhydrase 7 (Homo sapiens, UniProt P43166); Carbonic anhydrase 12 (Homo sapiens, UniProt O43570); Carbonic anhydrase 1 (Homo sapiens, UniProt P00915); Carbonic anhydrase 9 (Homo sapiens, UniProt Q16790).

Each structure is given as a SMILES string. Some results are limits rather than exact numbers.

Carbonic anhydrase 1, sequence (P00915 whole entry): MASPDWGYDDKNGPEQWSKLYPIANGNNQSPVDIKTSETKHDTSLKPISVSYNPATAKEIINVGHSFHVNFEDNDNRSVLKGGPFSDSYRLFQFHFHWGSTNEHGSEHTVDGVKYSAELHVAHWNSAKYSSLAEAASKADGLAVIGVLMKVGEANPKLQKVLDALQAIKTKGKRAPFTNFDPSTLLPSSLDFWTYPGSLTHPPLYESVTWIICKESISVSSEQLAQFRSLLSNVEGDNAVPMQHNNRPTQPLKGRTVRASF
Carbonic anhydrase 7, sequence (P43166 whole entry): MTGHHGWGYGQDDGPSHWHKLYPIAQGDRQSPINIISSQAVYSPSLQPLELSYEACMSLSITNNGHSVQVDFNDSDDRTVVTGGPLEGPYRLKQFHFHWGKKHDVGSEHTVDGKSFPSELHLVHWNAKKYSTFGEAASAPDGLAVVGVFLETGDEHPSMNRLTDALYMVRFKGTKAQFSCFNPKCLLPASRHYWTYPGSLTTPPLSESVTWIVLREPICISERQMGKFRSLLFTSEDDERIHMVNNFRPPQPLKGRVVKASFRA
Carbonic anhydrase 14, sequence (Q9ULX7 whole entry): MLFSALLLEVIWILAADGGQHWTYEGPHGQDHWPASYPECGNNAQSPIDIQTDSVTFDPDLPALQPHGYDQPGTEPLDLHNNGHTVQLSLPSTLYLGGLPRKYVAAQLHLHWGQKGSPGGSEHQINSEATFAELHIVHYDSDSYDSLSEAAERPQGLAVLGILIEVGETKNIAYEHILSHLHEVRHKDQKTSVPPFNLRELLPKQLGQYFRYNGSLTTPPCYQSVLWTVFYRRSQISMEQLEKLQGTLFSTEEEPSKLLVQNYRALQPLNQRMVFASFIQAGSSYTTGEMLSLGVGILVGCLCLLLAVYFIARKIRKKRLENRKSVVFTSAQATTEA
Carbonic anhydrase 12, sequence (O43570 whole entry): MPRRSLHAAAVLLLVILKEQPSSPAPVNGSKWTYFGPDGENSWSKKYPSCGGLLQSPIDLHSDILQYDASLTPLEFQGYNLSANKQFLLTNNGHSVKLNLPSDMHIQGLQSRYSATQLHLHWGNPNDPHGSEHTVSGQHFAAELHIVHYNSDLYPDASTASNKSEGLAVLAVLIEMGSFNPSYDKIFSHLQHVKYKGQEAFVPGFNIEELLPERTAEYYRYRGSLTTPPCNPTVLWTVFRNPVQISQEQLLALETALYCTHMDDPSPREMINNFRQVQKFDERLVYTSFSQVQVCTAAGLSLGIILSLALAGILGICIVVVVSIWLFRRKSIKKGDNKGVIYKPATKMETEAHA
Description for Carbonic anhydrase 12: Inhibition of recombinant human carbonic anhydrase 12 preincubated for 15 mins by stopped-flow CO2 hydration assay
Description for Carbonic anhydrase 14: Inhibition of recombinant human carbonic anhydrase 14 preincubated for 15 mins by stopped-flow CO2 hydration assay
Description for Carbonic anhydrase 2: Inhibition of recombinant human carbonic anhydrase 2 preincubated for 15 mins by stopped-flow CO2 hydration assay
Description for Carbonic anhydrase 7: Inhibition of recombinant human carbonic anhydrase 7 preincubated for 15 mins by stopped-flow CO2 hydration assay
Description for Carbonic anhydrase 9: Inhibition of recombinant human carbonic anhydrase 9 preincubated for 15 mins by stopped-flow CO2 hydration assay

For `COC(=O)[C@@H](NS(=O)(=O)NCc1ccc(F)cc1)C(C)C`, the Ki (usually a dissociation constant, usually derived from enzyme kinetics or from competition with a known ligand) was 7.4 nM at Carbonic anhydrase 14; over 10000 nM at Carbonic anhydrase 2; 0.24 nM at Carbonic anhydrase 7; 0.74 nM on Carbonic anhydrase 12; over 10000 nM at Carbonic anhydrase 1; 25.7 nM on Carbonic anhydrase 9.
Turning to `O=S(=O)([O-])NC1CCCCC1.[Na+]` [SODIUM CYCLAMATE], the Ki is 6.6 nM at Carbonic anhydrase 14; over 10000 nM on Carbonic anhydrase 2; 0.24 nM on Carbonic anhydrase 7; 3.8 nM at Carbonic anhydrase 12; over 10000 nM on Carbonic anhydrase 1; 81.3 nM at Carbonic anhydrase 9.
With `COC(=O)CCNS(=O)(=O)NC12CC3CC(CC(C3)C1)C2`, the Ki at Carbonic anhydrase 14 is 8 nM; on Carbonic anhydrase 2, 4960 nM; at Carbonic anhydrase 7, 0.43 nM; at Carbonic anhydrase 12, 60.7 nM; at Carbonic anhydrase 1 it was over 10000 nM; at Carbonic anhydrase 9 it was 30.5 nM.
Consider `COC(=O)CCNS(=O)(=O)NCC(C)C`, for which the inhibitory constant (Ki) was 6.3 nM at Carbonic anhydrase 14; over 10000 nM at Carbonic anhydrase 2; 0.27 nM on Carbonic anhydrase 7; 4.7 nM at Carbonic anhydrase 12; over 10000 nM on Carbonic anhydrase 1; 31.8 nM at Carbonic anhydrase 9.
For `CCCCCCNS(=O)(=O)NCCC(=O)OC`, the Ki was 6.1 nM on Carbonic anhydrase 14; 7680 nM on Carbonic anhydrase 2; 0.3 nM at Carbonic anhydrase 7; 5 nM at Carbonic anhydrase 12; over 10000 nM on Carbonic anhydrase 1; 96.7 nM at Carbonic anhydrase 9.
Consider `COC(=O)[C@@H](NS(=O)(=O)NCC(C)C)C(C)C`, for which the inhibitory constant (Ki) on Carbonic anhydrase 14 was 7.8 nM; on Carbonic anhydrase 2, over 10000 nM; on Carbonic anhydrase 7, 0.39 nM; on Carbonic anhydrase 12, 33.7 nM; on Carbonic anhydrase 1 it was over 10000 nM; at Carbonic anhydrase 9 it was 191 nM.
With `COC(=O)[C@H](Cc1ccccc1)NS(=O)(=O)NCC(C)C`, the Ki on Carbonic anhydrase 14 is 7.7 nM; at Carbonic anhydrase 2 it was 8530 nM; at Carbonic anhydrase 7 it was 0.37 nM; at Carbonic anhydrase 12, 6.8 nM; at Carbonic anhydrase 1, over 10000 nM; at Carbonic anhydrase 9 it was 225 nM.
For `COC(=O)[C@H](Cc1ccccc1)NS(=O)(=O)NCc1ccc(F)cc1`, the Ki is 6.5 nM at Carbonic anhydrase 14; over 10000 nM at Carbonic anhydrase 2; 0.28 nM on Carbonic anhydrase 7; 0.66 nM at Carbonic anhydrase 12; over 10000 nM at Carbonic anhydrase 1; 28.1 nM at Carbonic anhydrase 9.
Regarding `COC(=O)CCNS(=O)(=O)NC(C)c1ccccc1` (stereo unspecified), the Ki on Carbonic anhydrase 14 was 7.5 nM; at Carbonic anhydrase 2, over 10000 nM; on Carbonic anhydrase 7, 0.31 nM; on Carbonic anhydrase 12, 5.2 nM; on Carbonic anhydrase 1, over 10000 nM; at Carbonic anhydrase 9, 117 nM.
Regarding `COC(=O)CCNS(=O)(=O)NCc1ccc(F)cc1`, the Ki at Carbonic anhydrase 14 was 22.7 nM; on Carbonic anhydrase 2, 8880 nM; on Carbonic anhydrase 7, 0.45 nM; at Carbonic anhydrase 12, 74.4 nM; on Carbonic anhydrase 1 it was over 10000 nM; at Carbonic anhydrase 9 it was 29.3 nM.
As to `COC(=O)CCNS(=O)(=O)NCCc1ccccc1`, the Ki is 7.3 nM at Carbonic anhydrase 14; over 10000 nM at Carbonic anhydrase 2; 2.2 nM on Carbonic anhydrase 7; 64.2 nM on Carbonic anhydrase 12; over 10000 nM at Carbonic anhydrase 1; 26.5 nM at Carbonic anhydrase 9.
